Data as given in PubChem BioAssay (NCI).
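Test compounds were applied to cells in 96-well plates for 48 hours at 5 doses. The concentration for 50% growth inhibition is given as GI50. At the TGI there is no net growth.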

Tests used:
Assay in all cases: NCI-60 cell line screen, 48 h
NCI-H226 lung = system: NCI-H226 lung
NCI-H23 lung = system: NCI-H23 lung
NCI-H460 lung = system: NCI-H460 lung
NCI-H522 lung = system: NCI-H522 lung
NCI/ADR-RES ovarian = system: NCI/ADR-RES ovarian
OVCAR-3 ovarian = system: OVCAR-3 ovarian
OVCAR-4 ovarian = system: OVCAR-4 ovarian
OVCAR-5 ovarian = system: OVCAR-5 ovarian
OVCAR-8 ovarian = system: OVCAR-8 ovarian
PC-3 prostate = system: PC-3 prostate
RPMI-8226 leukemia = system: RPMI-8226 leukemia
RXF 393 renal = system: RXF 393 renal
SF-268 CNS = system: SF-268 CNS
SF-295 CNS = system: SF-295 CNS
SF-539 CNS = system: SF-539 CNS
SK-MEL-2 melanoma = system: SK-MEL-2 melanoma
SK-MEL-28 melanoma = system: SK-MEL-28 melanoma
SK-MEL-5 melanoma = system: SK-MEL-5 melanoma
SK-OV-3 ovarian = system: SK-OV-3 ovarian
SN12C renal = system: SN12C renal
SNB-19 CNS = system: SNB-19 CNS
SNB-75 CNS = system: SNB-75 CNS
SR leukemia = system: SR leukemia
SW-620 colon = system: SW-620 colon
T-47D breast = system: T-47D breast
U251 CNS = system: U251 CNS
UACC-257 melanoma = system: UACC-257 melanoma
UACC-62 melanoma = system: UACC-62 melanoma
UO-31 renal = system: UO-31 renal

With `O=C1/C(=C/c2ccc(Cl)cc2Cl)CN(S(=O)(=O)c2ccccc2)C/C1=C\c1ccc(Cl)cc1Cl` the TGI (NCI-H226 lung) was 1350 nM, the GI50 (NCI-H23 lung) was 381 nM and the TGI (NCI-H23 lung) was 2400 nM. It also gave a GI50 (NCI-H460 lung) of 224 nM, a TGI (NCI-H460 lung) of 498 nM and a GI50 (NCI-H522 lung) of 1130 nM. The TGI (NCI-H522 lung) was 3930 nM, the GI50 (NCI/ADR-RES ovarian) was 1150 nM and the TGI (NCI/ADR-RES ovarian) was > 100000 nM. It also gave a GI50 (OVCAR-3 ovarian) of 259 nM, a TGI (OVCAR-3 ovarian) of 620 nM and a GI50 (OVCAR-4 ovarian) of 291 nM. For the same molecule, the TGI (OVCAR-4 ovarian) was > 96000 nM, the GI50 (OVCAR-5 ovarian) was 1020 nM and the TGI (OVCAR-5 ovarian) was 4650 nM. The GI50 (OVCAR-8 ovarian) was 313 nM, the GI50 (PC-3 prostate) was 299 nM and the TGI (PC-3 prostate) was 979 nM. For the same molecule, the GI50 (RPMI-8226 leukemia) was 196 nM, the TGI (RPMI-8226 leukemia) was 562 nM and the GI50 (RXF 393 renal) was 1050 nM. For the same molecule, the TGI (RXF 393 renal) was 2680 nM, the GI50 (SF-268 CNS) was 385 nM and the TGI (SF-268 CNS) was > 35700 nM. It also gave a GI50 (SF-295 CNS) of 279 nM, a TGI (SF-295 CNS) of 1990 nM and a GI50 (SF-539 CNS) of 315 nM. For the same molecule, the TGI (SF-539 CNS) was 1130 nM, the GI50 (SK-MEL-2 melanoma) was 15400 nM and the TGI (SK-MEL-2 melanoma) was > 100000 nM. For the same molecule, the GI50 (SK-MEL-28 melanoma) was 8290 nM, the TGI (SK-MEL-28 melanoma) was > 100000 nM and the GI50 (SK-MEL-5 melanoma) was 14500 nM. The TGI (SK-MEL-5 melanoma) was > 100000 nM, the GI50 (SK-OV-3 ovarian) was 7320 nM and the TGI (SK-OV-3 ovarian) was 98900 nM. The GI50 (SN12C renal) was 288 nM, the TGI (SN12C renal) was 1100 nM and the GI50 (SNB-19 CNS) was 496 nM. The TGI (SNB-19 CNS) was 10800 nM, the GI50 (SNB-75 CNS) was 473 nM and the TGI (SNB-75 CNS) was 8200 nM. The GI50 (SR leukemia) was 198 nM, the TGI (SR leukemia) was 925 nM and the GI50 (SW-620 colon) was 314 nM. For the same molecule, the TGI (SW-620 colon) was 2540 nM, the GI50 (T-47D breast) was 594 nM and the GI50 (U251 CNS) was 173 nM. The TGI (U251 CNS) was 351 nM, the GI50 (UACC-257 melanoma) was 17700 nM and the TGI (UACC-257 melanoma) was > 100000 nM. For the same molecule, the GI50 (UACC-62 melanoma) was 1180 nM, the TGI (UACC-62 melanoma) was 4410 nM and the GI50 (UO-31 renal) was 233 nM. For the same molecule, the TGI (UO-31 renal) was 675 nM.
